The values below come from patent US8785619B1, “Nucleosides and oligonucleotides for studies on reversal of cytotoxic and mutagenic damage of DNA potential diagnostics tools” (ChemGenes Corporation, priority 2003, dated 2014).

Data set [1] in a line: Kinetic studies of N6 protecting group deprotection in ammonia: migration of methyl group from N1 to N6 (Dimroth rearrangement), by TLC and HPLC. The format is physicochemical. The text has this: Prior to utilize the N-6 chloroacetyl protected N-1 methyl-2′-deoxyadenosine 3′-cyanoethyl phosphoramidite, we carried out a number of kinetic studies for the deprotection of chloroacetyl group and determination of presence of any N-6 methyl
Our subsequent studies to develop a ideal group which would be cleanly removed under aq ammonia deprotection condition and would have negligible amount of Dimroth rearrangement product as bye product.
FIG. 7. 5′-DMT-N^1-Methyl-N^6-FMOC-2′-deoxyadenosine-Kinetic Test for FMOC. Deprotection (20% methanolic ammonia at 37 C. Note: The N-6 methyl migration product is seen 2.27% after complete deprotection.
(required to knock off Phenoxy acetyl from N^6 position). To minimize this migration, we introduced N-FMOC group in place of N-PAC which reduced 20% methanolic ammonia hydrolysis time to only 4 hours at 37° C. but even in 4 hours, approx. 2.5% migration took place. This migration of methyl group from N-^1 to N^6 position was confirmed by TLC & HPLC.

The conditions of data set [2]: cited from earlier work.
The mark [3] stands for this setting: 2M methanolic ammonia at room temperature.

Consider “N-6 chloroacetyl protected N-1 methyl-2′-deoxyadenosine 3′-cyanoethyl phosphoramidite”, for which the “N-6 methyl-2′-deoxy adenosine formation (Dimroth rearrangement product)” value in data set [1] (deprotection of chloroacetyl group) is 8-10%.

Turning to `COc1ccc(C(OC[C@H]2O[C@@H](n3cnc4c(=NC(=O)OCC5c6ccccc6-c6ccccc65)n(C)cnc43)C[C@@H]2O)(c2ccccc2)c2ccc(OC)cc2)cc1` [5′-DMT-N^1-Methyl-N^6-FMOC-2′-deoxyadenosine], the “N-6 methyl migration product after complete deprotection” value in data set [1] (FMOC deprotection, 20% methanolic ammonia at 37 C (FIG. 7)) is on record as 2.27%.

Turning to `Cn1cnc2c(ncn2[C@@H]2O[C@H](CO)[C@@H](O)[C@H]2O)c1=N` [N^1-methyl adenosine], in data set [2] (setting [3]), the time stable is reported as 3 days and the “time to total conversion into N6-methyl adenosine” value is 6 days.

With `COc1ccc(C(OCC2OC(n3cnc4c(=NC(=O)OCC5c6ccccc6-c6ccccc65)n(C)cnc43)CC2OP(OCCC#N)N(C(C)C)C(C)C)(c2ccccc2)c2ccc(OC)cc2)cc1` (stereo not drawn) [5′-DMT-N^1-Methyl-N^6-FMOC-2′-deoxyadenosine-3′-cyanoethyl, n,n-diisopropyl phosphoramidite], in data set [1] (aq ammonia deprotection), the “presence of N-6 methyl-2′-deoxy adenosine” value is “less than 1%”.

For `Cn1cnc2c(ncn2[C@H]2C[C@H](O)[C@@H](CO)O2)c1=N` [N^1-methyl-2′-deoxyadenosine], the “half life of conversion into N6-methyl-2′-deoxyadenosine” value in data set [2] (25% aq. ammonia) was 36 h.
